# From US8017775B2, “1-2-dihydroquinoline derivative having glucocorticoid receptor binding activity” (Santen Pharmaceutical Co., Ltd., priority 2005, dated 2011)
# Biological target: T1, Recombinant human GR (Homo sapiens, UniProt P04150)
# T1 construct: purchased Invitrogen P2816
# T1 sequence (P04150 1-777): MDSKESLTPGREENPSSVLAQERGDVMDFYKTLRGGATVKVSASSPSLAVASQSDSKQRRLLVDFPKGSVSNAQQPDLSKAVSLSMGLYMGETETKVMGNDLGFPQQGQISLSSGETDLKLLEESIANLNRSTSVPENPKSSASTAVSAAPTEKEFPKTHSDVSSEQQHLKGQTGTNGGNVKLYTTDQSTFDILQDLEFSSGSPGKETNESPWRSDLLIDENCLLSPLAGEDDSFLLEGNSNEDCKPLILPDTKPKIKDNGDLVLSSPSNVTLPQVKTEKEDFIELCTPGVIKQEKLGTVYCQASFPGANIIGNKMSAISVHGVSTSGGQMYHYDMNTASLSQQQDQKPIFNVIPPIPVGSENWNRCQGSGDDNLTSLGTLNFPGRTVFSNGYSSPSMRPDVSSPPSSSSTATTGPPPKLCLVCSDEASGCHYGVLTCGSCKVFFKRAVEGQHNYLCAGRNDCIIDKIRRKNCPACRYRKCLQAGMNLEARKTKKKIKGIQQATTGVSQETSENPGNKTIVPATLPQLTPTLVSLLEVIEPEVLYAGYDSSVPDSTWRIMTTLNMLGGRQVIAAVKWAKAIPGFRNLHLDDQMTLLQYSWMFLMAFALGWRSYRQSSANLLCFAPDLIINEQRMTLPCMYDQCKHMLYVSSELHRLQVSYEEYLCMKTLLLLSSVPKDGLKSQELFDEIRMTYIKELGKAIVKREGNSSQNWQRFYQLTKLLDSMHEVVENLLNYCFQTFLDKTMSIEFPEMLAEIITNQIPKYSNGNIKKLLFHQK
# Experiment: GR competitor assay by fluorescence polarization (GR binding ratio)
# Conditions: positive control 2 mM dexamethasone, a GR binding ratio of 100% or more is indicated by 100%
# Method: 1. Evaluation Test for Binding Activity to Glucocorticoid Receptor (hereinafter referred to as “GR”)
# In order to evaluate a binding activity to GR, a receptor competitor assay was carried out by a fluorescence polarization method. In the assay, a GR competitor assay kit (manufactured by Invitrogen, cat No. P2816) was used, and a procedure was carried out according to the protocol attached to the kit. Hereinafter, the specific method will be described.
# GR screening buffer: A buffer containing 10 mM potassium phosphate (pH 7.4), 20 mM sodium molybdate (Na2MoO4), 0.1 mM ethylene diamine tetraacetic acid (EDTA), 5 mM dithiothreitol (DTT), 0.1 mM stabilizing peptide and 2% dimethylsulfoxide was prepared.
# 4×GS1 solution: Fluormone™ GS1, which is a fluorescent glucocorticoid ligand, was diluted with GR screening buffer, whereby a 4 nM solution was prepared.
# 4×GR solution: Recombinant human GR was diluted with GR screening buffer, whereby a 16 nM solution was prepared.
# After a test compound was dissolved in dimethylsulfoxide, the resulting solution was diluted with GR screening buffer, whereby a 20 μM test compound solution was prepared.
# 1) The test compound solution was added in an amount of 25 μL or 10 μL into each well of a 96-well or 384-well plate, and then, 4×GS1 solution and 4×GR solution were added in an amount of 12.5 μL or 5 μL into each well, respectively.
# 2) The plate was incubated in a dark place at room temperature for 2 to 4 hours.
# 3) By using a multimode plate reader, Analyst™ HT (manufactured by LJL Biosystems), fluorescence polarization of each well was measured. As the blank, a well containing GR screening buffer in place of the test compound and 4×GS1 solution was used.
# 4) The same procedure as that in the above 1) to 3) was carried out except that GR screening buffer was used in place of the test compound solution, and the obtained result was taken as the negative control.
# 5) The same procedure as that in the above 1) to 3) was carried out except that 2 mM dexamethasone was used in place of the test compound solution, and the obtained result was taken as the positive control.
# A GR binding ratio (%) was calculated from the following equation.
# GR binding ratio (%)=100×[1−(fluorescence polarization of test compound solution−fluorescence polarization of positive control solution)/(fluorescence polarization of negative control solution−fluorescence polarization of positive control solution)]
row,SMILES,GR Binding ratio (%)
1,"COc1ccc(C(=O)OCc2c(-c3ccc(F)cc3OC)ccc3c2C(C)=CC(C)(C)N3)s1 [Compound 12-33, 6-(4-Fluoro-2-methoxyphenyl)-5-[(5-methoxythiophen-2-yl)carbonyloxymethyl]-2,2,4-trimethyl-1,2-dihydroquinoline]",≥ 100
2,"COc1cc(F)ccc1-c1ccc2c(c1COC(=O)c1ccc3c(c1)OCO3)C(C)=CC(C)(C)N2 [Compound 12-42, 5-[(1,3-Benzodioxol-5-yl)carbonyloxymethyl]-6-(4-fluoro-2-methoxyphenyl)-2,2,4-trimethyl-1,2-dihydroquinoline]",99
3,"COc1cc(F)c(F)cc1-c1ccc2c(c1COC(=O)c1cccs1)C(C)=CC(C)(C)N2 [Compound 12-53, 6-(4,5-Difluoro-2-methoxyphenyl)-5-[(thiophen-2-yl)carbonyloxymethyl]-2,2,4-trimethyl-1,2-dihydroquinoline]",≥ 100
4,"COc1cc(F)c(F)cc1-c1ccc2c(c1COC(=O)c1ccc(C)s1)C(C)=CC(C)(C)N2 [Compound 12-54, 6-(4,5-Difluoro-2-methoxyphenyl)-5-[(5-methylthiophen-2-yl)carbonyloxymethyl]-2,2,4-trimethyl-1,2-dihydroquinoline]",≥ 100
5,"CCOc1cc(F)ccc1-c1ccc2c(c1COC(=O)c1ccc(C)s1)C(C)=CC(C)(C)N2 [Compound 12-58, 6-(2-Ethoxy-4-fluorophenyl)-5-[(5-methylthiophen-2-yl)carbonyloxymethyl]-2,2,4-trimethyl-1,2-dihydroquinoline]",≥ 100
6,"COc1ccc(C)cc1-c1ccc2c(c1COC(=O)c1ccc(C)s1)C(C)=CC(C)(C)N2 [Compound 12-67, 6-(2-Methoxy-5-methylphenyl)-5-(5-methylthiophen-2-yl-carbonyloxymethyl)-2,2,4-trimethyl-1,2-dihydroquinoline]",≥ 100
7,"COc1ccc(Cl)cc1-c1ccc2c(c1COC(=O)c1ccc(C)s1)C(C)=CC(C)(C)N2 [Compound 12-69, 6-(5-Chloro-2-methoxyphenyl)-5-(5-methylthiophen-2-ylcarbonyloxymethyl)-2,2,4-trimethyl-1,2-dihydroquinoline]",≥ 100
8,"COc1ccc(C(F)(F)F)cc1-c1ccc2c(c1COC(=O)c1ccc(C)s1)C(C)=CC(C)(C)N2 [Compound 12-73, 6-(2-Methoxy-5-trifluoromethylphenyl)-5-(5-methylthiophen-2-ylcarbonyloxymethyl)-2,2,4-trimethyl-1,2-dihydroquinoline]",≥ 100
9,"COc1ccc(C(=O)OCc2c(-c3cc(F)ccc3OC)ccc3c2C(C)=CC(C)(C)N3)cc1 [Compound 12-75, 6-(5-Fluoro-2-methoxyphenyl)-5-(4-metoxybenzoyloxymethyl)-2,2,4-trimethyl-1,2-dihydroquinoline]",≥ 100
10,"COc1ccc(F)cc1-c1ccc2c(c1COC(=O)c1ccc(C)s1)C(C)=CC(C)(C)N2 [Compound 12-76, 6-(5-Fluoro-2-methoxyphenyl)-5-(5-methylthiophen-2-ylcarbonyloxymethyl)-2,2,4-trimethyl-1,2-dihydroquinoline]",≥ 100
11,"COC(=O)Cc1ccccc1OCc1c(-c2ccc(F)cc2OC)ccc2c1C(C)=CC(C)(C)N2 [Compound 14-1, 6-(4-Fluoro-2-methoxyphenyl)-5-(2-methoxycarbonylmethylphenoxymethyl)-2,2,4-trimethyl-1,2-dihydroquinoline]",≥ 100
12,"COc1ccc(C)cc1-c1ccc2c(c1COc1cc(F)ccc1C)C(C)=CC(C)(C)N2 [Compound 14-11, 5-(5-Fluoro-2-methylphenoxymethyl)-6-(2-methoxy-5-methylphenyl)-2,2,4-trimethyl-1,2-dihydroquinoline]",≥ 100
13,"COc1ccc(Cl)cc1-c1ccc2c(c1COc1cc([N+](=O)[O-])ccc1C)C(C)=CC(C)(C)N2 [Compound 14-12, 6-(5-Chloro-2-methoxyphenyl)-5-(2-methyl-5-nitrophenoxymethyl)-2,2,4-trimethyl-1,2-dihydroquinoline]",≥ 100
14,"COc1ccc(Cl)cc1-c1ccc2c(c1COc1cc(F)ccc1C)C(C)=CC(C)(C)N2 [Compound 14-13, 6-(5-Chloro-2-methoxyphenyl)-5-(5-fluoro-2-methylphenoxymethyl)-2,2,4-trimethyl-1,2-dihydroquinoline]",≥ 100
15,"COc1ccc(C(F)(F)F)cc1-c1ccc2c(c1COc1cc(F)ccc1C)C(C)=CC(C)(C)N2 [Compound 14-15, 5-(5-Fluoro-2-methylphenoxymethyl)-6-(2-methoxy-5-trifluoromethylphenyl)-2,2,4-trimethyl-1,2-dihydroquinoline]",99
16,"C=CCc1ccccc1OCc1c(-c2cc(C)ccc2OC)ccc2c1C(C)=CC(C)(C)N2 [Compound 14-21, 5-(2-Allylphenoxymethyl)-6-(2-methoxy-5-methylphenyl)-2,2,4-trimethyl-1,2-dihydroquinoline]",99
17,"COc1ccc(F)cc1-c1ccc2c(c1COc1cc(C)ccc1C)C(C)=CC(C)(C)N2 [Compound 14-40, 5-(2,5-Dimethylphenoxymethyl)-6-(5-fluoro-2-methoxyphenyl)-2,2,4-trimethyl-1,2-dihydroquinoline]",≥ 100
18,"COc1ccc(F)cc1-c1ccc2c(c1COc1cc(Cl)ccc1C)C(C)=CC(C)(C)N2 [Compound 14-41, 5-(5-Chloro-2-methylphenoxymethyl)-6-(5-fluoro-2-methoxyphenyl)-2,2,4-trimethyl-1,2-dihydroquinoline]",≥ 100
19,"COc1ccc(F)cc1-c1ccc2c(c1COc1cc(F)ccc1C)C(C)=CC(C)(C)N2 [Compound 14-43, 6-(5-Fluoro-2-methoxyphenyl)-5-(5-fluoro-2-methylphenoxymethyl)-2,2,4-trimethyl-1,2-dihydroquinoline]",≥ 100
20,"C=CCc1ccccc1OCc1c(-c2cc(F)ccc2OC)ccc2c1C(C)=CC(C)(C)N2 [Compound 14-45, 5-(2-Allylphenoxymethyl)-6-(5-fluoro-2-methoxyphenyl)-2,2,4-trimethyl-1,2-dihydroquinoline]",≥ 100
21,"C=CCc1ccccc1OCc1c(-c2cc(Cl)ccc2OC)ccc2c1C(C)=CC(C)(C)N2 [Compound 14-47, 5-(2-Allylphenoxymethyl)-6-(5-chloro-2-methoxyphenyl)-2,2,4-trimethyl-1,2-dihydroquinoline]",≥ 100
22,"COc1ccc([N+](=O)[O-])cc1-c1ccc2c(c1COc1cc(F)ccc1C)C(C)=CC(C)(C)N2 [Compound 14-48, 5-(5-Fluoro-2-methylphenoxymethyl)-6-(2-methoxy-5-nitrophenyl)-2,2,4-trimethyl-1,2-dihydroquinoline]",≥ 100
23,"COc1ccc(OCc2ccccc2)cc1-c1ccc2c(c1COc1cc(F)ccc1C)C(C)=CC(C)(C)N2 [Compound 15-2, 6-(5-Benzyloxy-2-methoxyphenyl)-5-(5-fluoro-2-methylphenoxymethyl)-2,2,4-trimethyl-1,2-dihydroquinoline]",76
24,"C=CCOc1ccc(-c2ccc3c(c2COc2cc(F)ccc2C)C(C)=CC(C)(C)N3)c(OC)c1 [Compound 15-7, 6-(4-Allyloxy-2-methoxyphenyl)-5-(5-fluoro-2-methylphenoxymethyl)-2,2,4-trimethyl-1,2-dihydroquinoline]",≥ 100
